This data set can be described thus: In vitro cytotoxicity with L-6 cells (Alamar Blue). It is filed as cell-based. The note with it: L-6 cells (rat skeletal myoblasts), 70 h + 2 h Alamar Blue; read-out: Cytotoxicity L6 IC50. As for the experimental part: Assays were performed in 96-well microtiter plates, each well containing 100 µl of RPMI 1640 medium supplemented with 1% L-glutamine (200mM) and 10% fetal bovine serum, and 4000 L-6 cells (a primary cell line derived from rat skeletal myoblasts). Serial drug dilutions of eleven 3-fold dilution steps covering a range from 100 to 0.002 µg/ml were prepared. After 70hours of incubation the plates were inspected under an inverted microscope to assure growth of the controls and sterile conditions. 10µl of Alamar Blue was then added to each well and the plates incubated for another 2 hours. Later they were read with a Spectramax Gemini XS microplate fluorometer (Molecular Devices Cooperation, Sunnyvale, CA, USA) using an excitation wave length of 536 nm and an emission wave length of 588 nm. The IC50 values were calculated by linear regression from the sigmoidal dose inhibition curves using SoftmaxPro software (Molecular Devices Cooperation, Sunnyvale, CA, USA). Podophyllotoxin (Sigma P4405) as control.
(Resazurin is reduced to fluorescent resorufin, in cell work by metabolically active cells.)
With `N=C(N)c1ccc(S(=O)(=O)NO)cc1` [Compound 12d], the CC50 at 72 h was over 100 µg/mL. The same measure, in the same setting: the same measure for `Nc1nc2ncc(C(=O)O)nc2c(=O)[nH]1` [Compound P6CAH]: over 100 µg/mL; for `N#Cc1nc(-c2ccco2)c[n+]([O-])c1N` [Compound 16b]: 61.1 µg/mL; for `O=C(NO)NC1CCCCC1` [Compound 7b]: 93 µg/mL.

For `NC(=O)c1ccc(S(=O)(=O)NO)cc1` [Compound 12c], the CC50 at 72 h was over 100 µg/mL. As to `N=C(NO)c1ccc(S(=O)(=O)NO)cc1` [Compound 12b], the CC50 at 72 h is over 100 µg/mL. Same read-out and setting: the same measure for `N=C(NO)c1ccc(C(=O)NO)cc1` [Compound 1c]: 56.1 µg/mL; for `N=C(NO)c1ccc(NC(=O)NO)cc1` [Compound 2c]: over 100 µg/mL. Same read-out and setting: with `N=C(NO)c1ccc(NC(=O)NOCc2ccccc2)cc1` [Compound 2b] the figure was 43 µg/mL; with `N=C(N)c1ccc(N)cc1` [Compound 13c], 42.9 µg/mL. Still for that read-out and setting: with `CCCCONC(=O)c1ccc(NC(=N)N)cc1` [Compound 9d] the figure was over 100 µg/mL. Take `CC(C)(C)C(=O)N(O)c1ccc(C#N)cc1` [Compound 15a]: the CC50 at 72 h is 33.5 µg/mL. Same read-out and setting: the same measure for `Nc1ccc(C(=O)NO)cc1` [Compound 9b]: 43.4 µg/mL. Broadly, the IC50 is the concentration needed to halve the response being measured. Take `COc1cc([C@@H]2c3cc4c(cc3[C@H](O)[C@H]3COC(=O)[C@H]23)OCO4)cc(OC)c1OC` [Podophyllotoxin, reference compound]: the IC50 at 72 h is 0.006 µg/mL. With `Cc1ccc(S(=O)(=O)NC(C#N)C#N)cc1` [Compound 16a], the CC50 at 72 h is over 100 µg/mL. On the same count and under the same terms, with `N=C(NO)c1ccc(NC(=S)NOCc2ccccc2)cc1` [Compound 3c] the figure was 57.6 µg/mL; with `CC(=O)N(O)c1ccc(C(=N)NO)cc1` [Compound 10c], 52.2 µg/mL. As to `O=C(NO)Nc1ccc(Cl)c(Cl)c1` [Compound 4b], the CC50 at 72 h was over 100 µg/mL.

Values taken from patent EP4070856A1, “ORGANIC COMPOUNDS AND USES THEREOF” (Adebiyi, Ezekiel, priority 2021, dated 2022).
